Experimental data: PubChem BioAssay (NCI)
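Where inhibition never reached the appropriate level, the endpoint shown equals the highest concentration tested. Otherwise, values were interpolated linearly from a five-concentration, 48-hour dose response in 96-well plates. GI50 = concentration required for 50% inhibition of growth. TGI marks complete inhibition of growth.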

Columns and labels:
Experiment in all cases: NCI anticancer screen, dose series, 48 h
[1] = test system: A549 NSCLC
[2] = test system: CCRF-CEM leukemia
[3] = test system: OVCAR-3 ovarian
[4] = test system: SK-MEL-28 melanoma
[5] = test system: ACHN renal
[6] = test system: 786-0 renal
[7] = test system: SK-MEL-2 melanoma
[8] = test system: SNB-19 CNS
[9] = test system: RXF 393 renal
[10] = test system: EKVX NSCLC

C=CS(=O)(=O)CCN1CC1
TGI [1]: > 10 µM
TGI [2]: > 10 µM
TGI [3]: > 10 µM
TGI [4]: > 10 µM
TGI [5]: > 10 µM
TGI [6]: > 10 µM

CC12Oc3ccc4ccccc4c3CC1Cc1c(ccc3ccccc13)O2 (stereo unspecified)
TGI [7]: > 100 µM
TGI [1]: > 100 µM
TGI [8]: > 100 µM
TGI [4]: > 100 µM
TGI [5]: > 100 µM
TGI [9]: 59.8 µM
TGI [10]: > 100 µM
TGI [6]: > 100 µM

COc1ccc(Nc2c3ccccc3nc3[nH]c4ccccc4c23)cc1
GI50 [7]: > 50 µM
TGI [7]: > 50 µM
GI50 [1]: 8.49 µM
TGI [1]: > 50 µM
GI50 [8]: 25.5 µM
TGI [8]: > 50 µM
GI50 [3]: 19.4 µM
TGI [3]: > 50 µM
GI50 [4]: 18.5 µM
TGI [4]: > 50 µM
GI50 [5]: 7.36 µM
TGI [5]: 25 µM
GI50 [9]: > 50 µM
TGI [9]: > 50 µM
GI50 [10]: 10.9 µM
TGI [10]: > 50 µM
GI50 [6]: 11.4 µM
TGI [6]: 49.2 µM

Cc1cccc(C(C)(C)C)c1NC(=O)CC1Sc2ccccc2NC1=O (stereo unspecified)
TGI [1]: > 100 µM
TGI [8]: > 100 µM
TGI [2]: > 100 µM
TGI [3]: > 100 µM
TGI [4]: > 100 µM
TGI [5]: > 100 µM
TGI [10]: > 100 µM
TGI [6]: > 100 µM

c1ccc(CNc2nc(Nc3ccccc3)nc3ccccc23)cc1
GI50 [1]: 1.84 µM
TGI [1]: 5.35 µM
GI50 [8]: 3.16 µM
TGI [8]: 14.6 µM
GI50 [2]: 2.13 µM
TGI [2]: 6 µM
GI50 [3]: 1.77 µM
TGI [3]: 3.53 µM
GI50 [4]: 1.7 µM
TGI [4]: 3.24 µM
GI50 [5]: 1.87 µM
TGI [5]: 4.16 µM
GI50 [9]: 1.65 µM
TGI [9]: 3.2 µM
GI50 [6]: 1.66 µM
TGI [6]: 3.12 µM

Oc1ccc(Cl)cc1CNc1nc2ccccc2[nH]1
GI50 [7]: 15.9 µM
TGI [7]: 33 µM
GI50 [1]: 12.7 µM
TGI [1]: 30.2 µM
GI50 [8]: 14.4 µM
TGI [8]: 40.3 µM
GI50 [2]: 17.9 µM
TGI [2]: 88.5 µM
GI50 [3]: 12.7 µM
TGI [3]: 29 µM
GI50 [4]: 13.6 µM
TGI [4]: 27.9 µM
GI50 [5]: 13.8 µM
TGI [5]: 35.8 µM
GI50 [9]: 10.3 µM
TGI [9]: 23.9 µM
GI50 [6]: 14.3 µM
TGI [6]: 31.4 µM

CN(/N=N/c1nc(OCc2ccccc2)c2[nH]cnc2n1)C(=O)Oc1ccc([N+](=O)[O-])cc1
GI50 [7]: 11.9 µM
TGI [7]: 28.5 µM
GI50 [1]: 12 µM
TGI [1]: 31.6 µM
GI50 [8]: 9.6 µM
TGI [8]: 27.9 µM
GI50 [3]: 9.49 µM
TGI [3]: 24.4 µM
GI50 [4]: 12.4 µM
TGI [4]: > 50 µM
GI50 [10]: 11.5 µM
TGI [10]: 35.9 µM
GI50 [6]: 8.76 µM
TGI [6]: 23.7 µM

CN1CC(=O)N(C)c2nc[nH]c2C1=O
TGI [1]: > 100 µM
TGI [8]: > 100 µM
TGI [2]: > 100 µM
TGI [3]: > 100 µM
TGI [4]: > 100 µM
TGI [5]: > 100 µM
TGI [9]: > 100 µM
TGI [10]: > 100 µM
TGI [6]: > 100 µM

NCCSCCc1ccccc1
TGI [7]: > 100 µM
TGI [1]: > 100 µM
TGI [8]: > 100 µM
TGI [3]: > 100 µM
TGI [4]: > 100 µM
TGI [5]: > 100 µM
TGI [9]: > 100 µM
TGI [10]: > 100 µM
TGI [6]: > 100 µM
